Data from US6808877B2, “Ligands for FPR class receptors that induce a host immune response to a pathogen or inhibit HIV infection” (priority 2000, dated 2004).
Entries after “also recorded” stand apart in the source; their conditions may differ. Like-named read-outs stand apart in the source and are kept apart here.

Experiments:
CCR5 = CCR5 serine phosphorylation in monocytes (anti-phosphoserine IP, anti-CCR5 immunoblot); format: cell-based, human; conditions: human monocytes; for serine phosphorylation of CCR5: 37° C.
Procedure: Monocytes were isolated by counter-flow elutriation from the peripheral blood of normal donors (NIH Clinical Center, Transfusion Medicine Department, Bethesda, Md.) and enriched for mononuclear cells by using counter-flow elutriation. The purity of the cell preparations was examined by morphology after cytospin, and was >90%. The cells were stimulated with different concentrations of chemokines for indicated time periods at 37° C. and lysed for 20 min on ice with periodic mixing in lysis buffer (1% Triton X-100, 20 mM, Tris-HCl pH 8.0, 137 mM NaCl, 15% glycerol, 5 mM EDTA) containing phosphatase and protease inhibitors (1 mM phenylmethylsulfonyl fluoride, 5 μg/ml aprotinin, 5 μg/ml leupeptin, 1 mM sodium orthovanadate, 1 mM EGTA). Cell lysates were precleared with 30 µl of washed Protein-A sepherose beads (Pharmacia Biotech. Piscataway, N.J.), 1 μg of polyclonal anti-phospho-serine antibody (Zymed Laboratory Inc. South San Francisco, Calif.) was added to 200 μg cell lysates diluted with 2×immunoprecipitation (IP) buffer (1×buffer contains 1%Triton X-100, 10 mM Tris-HCl pH 7.4, 137 mM NaCl, 1 mM EDTA, 1 mM EGTA, 0.2 mM sodium orthovanadate, 0.2 mM PMSF, 0.5% NP-40). The reaction mixture was incubated at 4° C. overnight under constant rocking. The immune complex was captured by adding 50 μl of washed Protein-A sepharose beads (25 μl packed beads) and incubation of the reaction mixture at 4° C. for additional 2 hours. The beads were spun down (10 seconds at 14,000 rpm), the pellets were washed 3 times with ice-cold IP buffer, resuspended in 30 μl of 2×Laemmli sample buffer (126 mM Tris-HCl, 20% Glycerol, 4% SDS, 0.005% bromophenol blue with or without addition of 1% 2-mercaptoethanol, Novex, San Diego, Calif.) and boiled for 5 min to elute the immune complex. After electrophoresis on 4-12% SDS-PAGE precast gel (Novex), the proteins were transferred to Immobilon P membranes (Millipore, Bedford, Mass.). The membranes were blocked in freshly prepared PBS containing 3% dry milk 2 h, then were incubated with 1 μg/ml of polyclonal anti-CCR5 antibody (Millenium Biotechnology, Ramona, Calif.) overnight at 4° C. followed by washing 3 times with PBS containing 0.05% Tween 20. The membranes were incubated with a horse radish-peroxidase conjugated goat anti-rabbit IgG (1:5000) (Sigma, St. Louis, Mo.) in PBS containing 3% dry milk for 1 hour at room temperature with agitation. After washing 3 times with PBS-0.05% Tween 20, the membranes were incubated with Super Signal Chemiluminescent Substrate Stable Peroxide Solution (Pierce, Rockford, Ill.) for 1 min, and exposed to BIOMAX-MR film (Eastman Kodak Company, Rochester, N.Y.).
Monocytes stimulated with different concentrations of stimulants for indicated time periods at 37° C. were lysed for 20 min on ice with periodic mixing in lysis buffer [1% Triton X-100, 20 mM Tris-HCl (pH 8.0), 137 mM NaCl, 15% glycerol, 5 mM EDTA] containing phosphatase and protease inhibitors (1 mM phenylmethylsulfonyl fluoride, 5 μg/ml aprotinin, 5 μg/ml leupeptin, 1 mM sodium orthovanadate, 1 mM EGTA). Cell lysates were precleaned with 30 μl of washed Protein A Sepharose beads (15 μl packed beads) at 4° C. for 1 hour and 1 μg of polyclonal anti-phosphoserine antibody was added to 200 μg cell lysates diluted with 2×immunoprecipitation (IP) buffer [1×: 1% Triton X-100, 10 mM Tris-HCl (pH 7.4), 137 mM NaCl, 1 mM EDTA, 1 mM EGTA, 0.2 mM […], 0.2 mM PMSF, 0.5% NP-40]. The reaction mixture was incubated at 4° C. overnight under constant rocking. The immunecomplex was captured by adding 50 μl of washed Protein A sepharose beads (25 μl packed beads) and incubating the reaction mixture at 4° C. for an additional 2 hours. […]

monocytes = test: Ca2+ mobilization in monocytes (Fura-2); format: cell-based, human
Procedure: (§1) Calcium mobilization was measured by incubating 2×10^7/ml cells in loading medium (DMEM, 10% FBS) with 5 μM Fura-2 AM (Molecular Probes, Eugene, Oreg.) for 30 min at room temperature in the dark. The dye-loaded cells were washed 3 times with loading medium and resuspended in saline buffer [138 mM NaCl, 6 mM KCl, 1 mM CaCl2, 10 mM HEPES (pH 7.4), 5 mM Glucose, 0.1% BSA] at a concentration of 1×10^6/ml. The cells were then transferred into quartz cuvettes (2 ml) which were placed in a luminescence spectrometer (LS-50B, Perkin-Elmer, Beaconsfield, England). Stimulants at different concentrations were added in a volume of 20 μl to each cuvette at the indicated time points. The ratio of fluorescence at 340 and 380 nm wavelength was calculated using a FL WinLab program (Perkin-Elmer).
(§2) Calcium mobilization was assayed by incubating 2×10^7/ml of monocytes, neutrophils, FPRL1 or FPR transfectants in loading buffer containing 138 mM NaCl, 6 mM KCl, 1 mM CaCl2, 10 mM HEPES (pH 7.4), 5 mM glucose, 0.1% BSA with 5 μM Fura-2 (Sigma) at 37° C. for 30 min. The dye-loaded cells were washed and resuspended in fresh loading buffer. The cells were then transferred into quartz cuvettes (10^6 cells in 2 ml) which were placed in a luminescence spectrometer LS50 B (Perkin-Elmer Limited, Beaconsfield, England). Stimulants at different concentrations were added in a volume of 20 μl to the cuvettes at indicated time points. The ratio of fluorescence at 340 and 380 nm wavelength was calculated using the FL WinLab program (Perkin-Elmer).

neutrophils = test: Ca2+ mobilization in neutrophils (Fura-2); format: cell-based, human
Procedure: as §1, §2

FPRL1 [1] = target: T1, FPRL1 (Homo sapiens, UniProt P25090); format: cell-based
T1 construct: expressed in transfected cells; host or cells: HEK 293
T1 sequence (P25090 1-351): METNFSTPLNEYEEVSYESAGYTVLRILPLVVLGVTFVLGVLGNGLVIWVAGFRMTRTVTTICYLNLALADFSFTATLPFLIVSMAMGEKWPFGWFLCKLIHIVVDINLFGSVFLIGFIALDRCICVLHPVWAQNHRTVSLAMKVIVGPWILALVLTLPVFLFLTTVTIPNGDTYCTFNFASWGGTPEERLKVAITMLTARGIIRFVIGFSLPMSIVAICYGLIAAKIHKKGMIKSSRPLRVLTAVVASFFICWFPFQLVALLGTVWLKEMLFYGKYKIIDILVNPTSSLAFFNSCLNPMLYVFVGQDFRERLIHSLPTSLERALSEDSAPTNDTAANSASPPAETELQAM

FPRL1 [2] = target: T1, FPRL1; test: Ca2+ mobilization in FPRL1/293 cells; format: cell-based
Procedure: as §1, §2

[3] = concentrations in the micromolar range
[4] = high concentration of fMLP (1 μM), V3 1.5 μM

Compound | time to increase in CCR5 phosphorylation after stimulation (CCR5) [min] | serine phosphorylation of CCR5 (CCR5) | response to W peptide (Ca2+ flux) (monocytes; [3]) | signaling of V3 peptide on cross-desensitization (monocytes; [4]) | effect on W peptide-induced Ca2+ flux (monocytes; low concentrations (nM range)) | response to W peptide (Ca2+ flux) (neutrophils; [3]) | signaling of V3 peptide on cross-desensitization (neutrophils; [4]) | effect on W peptide-induced Ca2+ flux (neutrophils; low concentrations (nM range)) | migration / chemotaxis (FPRL1 [1]) | excess required to desensitize the effect of W peptide (Ca2+ flux) (FPRL1 [2]; FPRL1/293 cells) | minimal effective concentration to induce Ca2+ mobilization (FPRL1 [2]; FPRL1/293 cells, given as range in words) | time of maximal CCR5 phosphorylation (CCR5) [min] | Ca2+ mobilization (monocytes) | attenuation of the cell response to chemokines including SDF-1α on sequential stimulation (monocytes; V3 peptide 1.5 μM) | Ca2+ mobilization (neutrophils) | migration / chemotaxis (FPRL1 [1]; FPRL1/293 cells) | Ca2+ mobilization (FPRL1 [2]; HEK293 cells transfected to express FPRL1)
CSCC[C@H](NC=O)C(=O)N[C@@H](CC(C)C)C(=O)N[C@@H](Cc1ccccc1)C(=O)O [fMLP, N-formyl-methionyl-leucyl-phenylalanine] | ≤ 1 | increased level of CCR5 phosphorylation; also recorded: induced CCR5 phosphorylation | significantly attenuated | attenuated | limited effect | significantly attenuated | attenuated | limited effect | failed to migrate | 10^5 fold excess | μM range |  |  |  |  |  | 
TRPNYNKRKRIHIGPGRAFYTTKNIIGTIRQAH-NH2 [V3 peptide] |  | induced significant serine phosphorylation of CCR5 |  |  |  |  |  |  |  |  |  | 15 | mobilized Ca^2+ | did not, however, attenuate | mobilized Ca^2+ | induced both Ca^2+ mobilization and chemotaxis | induced both Ca^2+ mobilization and chemotaxis
